# Reference: ChEMBL document CHEMBL3421582, “Quinofuracins A-E, produced by the fungus Staphylotrichum boninense PF1444, show p53-dependent growth suppression” (J Nat Prod, 2015)
# The source made the active and inactive calls. No cut-off for these calls is given here.
# What was measured:
# [1] = target: Cellular tumor antigen p53 (Homo sapiens) (UniProt P04637); assay: Induction of wild type p53-dependent growth suppression of human MCF7 cells; type: cell-based
# [2] = tested on: Cellular tumor antigen p53 (Homo sapiens), P04637 [UNDEFINED MUTATION]; assay: Induction of p53 mutant-dependent growth suppression of human HCT15 cells; type: cell-based; conditions: HCT-15
# [3] = target: Cellular tumor antigen p53 (Homo sapiens) (UniProt P04637); assay: Induction of wild type p53-dependent growth suppression of human HCT116 cells; type: cell-based; conditions: HCT-116
# [4] = tested on: Cellular tumor antigen p53 (Homo sapiens), P04637 [UNDEFINED MUTATION]; assay: Induction of p53 mutant-dependent growth suppression of human MKN7 cells; type: cell-based; conditions: MKN-7
# [5] = tested on: Cellular tumor antigen p53 (Homo sapiens), P04637 [UNDEFINED MUTATION]; assay: Induction of p53 mutant-dependent growth suppression of human […] cells
# [6] = tested on: LNZTA3; assay: (§1) Cytotoxicity against p53-deficient human LNZTA3 cells assessed as growth inhibition after 72 hrs by MTT assay; type: functional, cell-based
# [7] = target: Cellular tumor antigen p53 (Homo sapiens) (UniProt P04637); assay: Induction of wild type p53-dependent growth suppression of human MKN45 cells; type: cell-based; conditions: MKN-45
# [8] = target: Cellular tumor antigen p53 (Homo sapiens) (UniProt P04637); assay: Induction of p53-dependent growth suppression of human LNZTA3 cells after 72 hrs by MTT assay; type: cell-based
# [9] = target: Cellular tumor antigen p53 (Homo sapiens) (UniProt P04637); assay: Induction of wild type p53-dependent growth suppression of human RKO cells; type: cell-based
# [10] = as §1; type: functional, cell-based; conditions: LNZTA3, 72 h
# [11] = tested on: LNZTA3; assay: Cytotoxicity against p53-deficient human LNZTA3 cells assessed as growth inhibition at >100 uM after 72 hrs by MTT assay; type: functional, cell-based
# Sequence of Cellular tumor antigen p53 (Homo sapiens), P04637 [UNDEFINED MUTATION] (P04637 whole entry, looked up, stated change not applied): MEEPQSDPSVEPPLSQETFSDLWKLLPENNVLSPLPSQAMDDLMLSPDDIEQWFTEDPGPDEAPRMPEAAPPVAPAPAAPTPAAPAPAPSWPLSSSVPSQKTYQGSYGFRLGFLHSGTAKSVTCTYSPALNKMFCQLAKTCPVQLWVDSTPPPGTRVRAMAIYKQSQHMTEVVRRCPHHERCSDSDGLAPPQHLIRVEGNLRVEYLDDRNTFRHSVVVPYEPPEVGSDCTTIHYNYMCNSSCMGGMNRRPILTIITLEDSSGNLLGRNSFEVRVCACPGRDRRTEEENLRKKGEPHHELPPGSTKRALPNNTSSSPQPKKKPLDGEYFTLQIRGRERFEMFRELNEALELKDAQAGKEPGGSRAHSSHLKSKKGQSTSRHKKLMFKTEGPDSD
# Sequence of Cellular tumor antigen p53 (Homo sapiens) (P04637 whole entry, looked up): as the sequence (P04637 whole entry, looked up, stated change not applied) above
Activity [1],Activity [2],Activity [3],Activity [4],Activity [5],Activity [7],Activity [8],Activity [9],SMILES,growth inhibition (GI) [6],IC50 [10] [µM],growth inhibition (GI) [11]
Active,Active,Active,Active,Active,Active,Active,Active,CCCCC[C@H](O)c1c(O[C@@H]2O[C@@H]([C@H](O)CO)[C@H](O)[C@H]2O)cc2c(c1O)C(=O)c1c(O)cc(O)cc1C2=O,Active,,
Active,Active,Active,Active,Active,Active,,Active,CCCCC[C@H](O[C@@H]1O[C@@H]([C@H](O)CO)[C@H](O)[C@H]1OC(C)=O)c1c(O)cc2c(c1O)C(=O)c1c(O)cc(O)cc1C2=O,,32,
Active,Active,Active,Active,Active,Active,,Active,CCCCC[C@H](O[C@@H]1O[C@@H]([C@H](O)CO)[C@H](O)[C@H]1O)c1c(O)cc2c(c1O)C(=O)c1c(O)cc(O)cc1C2=O,,32,
Active,Active,Active,Active,Active,Active,Active,Active,CC(=O)CCC[C@H](O[C@@H]1O[C@@H]([C@H](O)CO)[C@H](O)[C@H]1O)c1c(O)cc2c(c1O)C(=O)c1c(O)cc(O)cc1C2=O,,,inactive
Active,Active,Active,Active,Active,Active,Active,Active,O=C1c2cc(O[C@@H]3O[C@@H]([C@H](O)CO)[C@H](O)[C@H]3O)cc(O)c2C(=O)c2c1cc1c(c2O)[C@@H]2CCO[C@@H]2O1,Active,,

SMILES,Activity [1],Activity [2],Activity [3],Activity [4],Activity [5],Activity [7],Activity [8],Activity [9],growth inhibition (GI) [6],IC50 [10] [µM],growth inhibition (GI) [11]
CCCCC[C@H](O)c1c(O)cc2c(c1O)C(=O)c1c(O)cc(O)cc1C2=O,,,,,,,Active,,,,
